Test results reported in patent US20140235643A1, “NOVEL QUINOXALINE INHIBITORS OF PI3K” (GILEAD CALISTOGA LLC, priority 2011, published 2014).

Tests used:
PI3Kα (p110α/p85α) = biological target: T1, PI3Kα (p110α/p85α) (Homo sapiens, UniProt P42336); assay: PI3K biochemical enzyme assay (Adapta universal kinase assay), p110 alpha/p85 alpha; settings: for inhibition at 1 µM / inhibition at 10 µM: read-out: PI3Kα % inhib; for IC50: Table 2, PI3k biochemical assays, read-out: p110α/p85α IC50
T1 construct: purchased Invitrogen
Method: (§1) This example describes a method of obtaining in vitro activity data concerning the effect of compounds of on various PI3K isoforms. The effect of compounds on the kinase activity of Class I PI3Ks was measured at Invitrogen by using the Adapta® universal kinase assay. It was a homogenous, fluorescent based immunoassay for the detection of ADP produced by the kinase reaction. This assay can be divided into two phases: a kinase reaction phase, and an ADP detection phase. In the kinase reaction phase, all components required for the kinase reaction were added to the well, and the reaction was allowed to incubate for 60 minutes. After the reaction, a detection solution consisting of a europium labeled anti-ADP antibody, an Alexa Fluor® 647 labeled ADP tracer, and EDTA (to stop the kinase reaction) was added to the assay well. ADP formed by the kinase reaction (in the absence of an inhibitor) displaced the Alexa Fluor® 647 labeled ADP tracer from the antibody, resulting in a decrease in the TR-FRET signal.
(§2) ADP formation was determined by calculating the emission ratio from the assay well. The emission ratio was calculated by dividing the intensity of the tracer (acceptor) emission by the intensity of the Eu (donor) emission at 615 nm as shown in the equation below.
(§3) The Test Compounds were screened in 1% DMSO (final) in the well. All Substrate/Kinase Mixtures were diluted to a 2× working concentration in the appropriate Kinase Buffer as described below for the individual kinase:
The 2× p110 alpha/p85 alpha/PIP2:PS mixture was prepared in 50 mM HEPES pH 7.5, 100 mM NaCl, 0.03% CHAPS, 3 mM mgCl2, 1 mM EGTA. The final 10 μL Kinase Reaction consisted of 0.3-1.5 ng p110 alpha/p85 alpha and 50 μM PIP2:PS in 32.5 mM HEPES pH 7.5, 50 mM NaCl, 0.015% CHAPS, 1.5 mM mgCl2, 0.5 mM EGTA. After the 1 hour Kinase Reaction incubation, 5 μL of Detection Mix was added.
(§4) The Detection mix consisted of EDTA (30 mM), Eu-anti-ADP antibody (30 nM) and ADP tracer. All ATP Solutions were diluted to a 4× working concentration in water and used at the Km apparent concentrations for each individual kinase.

PI3Kγ (p110 gamma) = biological target: T2, PI3Kγ (p110 gamma) (Homo sapiens, UniProt P48736); assay: PI3K biochemical enzyme assay (Adapta universal kinase assay), p110 gamma; settings: for IC50: Table 2, PI3k biochemical assays, read-out: p120γ IC50
T2 construct: purchased Invitrogen
Method: as §1, §2, §3
The 2× p110 gamma/PIP2:PS mixture was prepared in 50 mM HEPES pH 7.5, 1 mM EGTA, 3 mM mgCl2. The final […] Kinase Reaction consisted of 3.5-26 ng p110 gamma and 50 μM PIP2:PS in 32.5 mM HEPES pH 7.5, 0.5 mM EGTA, 1.5 mM mgCl2. After the 1 hour Kinase Reaction incubation, 5 μL of Detection Mix was added.
as §4

PI3Kβ (p110β/p85α) = biological target: T3, PI3Kβ (p110β/p85α) (Homo sapiens, UniProt P42338); assay: PI3K biochemical enzyme assay (Adapta universal kinase assay), p110 beta/p85 alpha; settings: for IC50: Table 2, PI3k biochemical assays, read-out: p110β/p85α IC50
T3 construct: purchased Invitrogen
Method: as §1, §2, §3
The 2× p 110beta/p85 alpha/PIP2:PS mixture was prepared in 50 mM HEPES pH 7.5, 100 mM NaCl, 0.03% CHAPS, 1 mM EGTA, 3 mM mgCl2, and 2 mM DTT. The final 10 μL Kinase Reaction consisted of 35.4 ng p110 beta/p85 alpha and 50 μM PIP2:PS. After the 1 hour Kinase Reaction incubation, 5 μL of Detection Mix was added.
as §4

PI3Kγ = biological target: T4, PI3Kγ (Mus musculus, UniProt Q9JHG7); assay: PI3Kγ-dependent cell-based assay: C5a-mediated AKT phosphorylation in RAW-264 cells; set-up: species or system murine; settings: C5a-induced AKT phosphorylation, RAW-264 macrophages
T4 construct: endogenous in cells; host or cells: RAW-264 macrophage cells (ATCC)
Method: PDGF-BB-induced AKT phosphorylation in Swiss-3T3 fibroblasts is mediated by p110α. C5a-induced AKT phosphorylation in RAW-264 murine macrophages is mediated exclusively by p110γ.
PI3Kγ-Dependent Cell-Based Assay: C5a-Mediated AKT Phosphorylation in RAW-264 Cells
RAW-264 macrophage cells (American Type Culture Collection) were cultured with Dulbecco's modified Eagle medium (DMEM) containing 10% fetal bovine serum and the antibiotics penicillin and streptomycin. Cells were seeded on a 96-well Tissue Culture Plate at 100,000 to 200,000 cells/well the day before the experiment. Next day, cells were starved for 2 hr in 0.1% FBS containing medium. The cells were pretreated with inhibitors or DMSO for 2 hr and stimulated for 5 min with 75 ng/ml C5a (R&D) at 37° C. in 5% CO2. The culture medium was removed and cells were fixed for 20 min at room temperature by addition of 100 μl of 4% cell fixing buffer to each well. AKT phosphorylation and total AKT was detected by ELISA.
Detection of Phospho-Ser-473 AKT and Total AKT by ELISA
The fixed cells were washed twice with 150 μl of wash buffer (WB) and quenched by incubating with 100 μl of Quenching Buffer for 20 min at room temperature. Cells were washed once with 150 μl WB and blocked by incubating with 100 μl of Blocking Buffer for 1 hr at room temperature. Cells were incubated with 50 μl of primary antibody diluted in Blocking Buffer, either phospho-Ser-473 AKT specific (1:150 dilution) or total-AKT antibody (1:200 dilution), to each specific well. The negative control wells contained 50 μl of Blocking Buffer. Plates were sealed with plate sealing film and incubated overnight at 4° C. Cells were washed twice with 150 μl WB followed by addition of 50 μl per well of DELFIA secondary antibody (50 ng/well, diluted in DELFIA Assay Buffer). After 2 hr incubation at room temperature, cells were washed 4 times with 150 μl of Europium Wash Solution followed by addition of 100 μl of DELFIA Enhancing Solution to each well. Plates were incubated for 5 min in the dark and fluorescent signal was read using SpectraMax M5™ (Molecular Devices). Total AKT level was determined to verify equal cell number per well. The average background fluorescence values from wells that received vehicle control in the absence of PDGF-BB or C5a were subtracted from all the values of experimental conditions. Fluorescence values corresponding to phosphorylated AKT from wells that received PDGF-BB or C5a were normalized to 100% and compound effect was plotted as % change relative to the vehicle control.

T4 sequence (Q9JHG7 whole entry): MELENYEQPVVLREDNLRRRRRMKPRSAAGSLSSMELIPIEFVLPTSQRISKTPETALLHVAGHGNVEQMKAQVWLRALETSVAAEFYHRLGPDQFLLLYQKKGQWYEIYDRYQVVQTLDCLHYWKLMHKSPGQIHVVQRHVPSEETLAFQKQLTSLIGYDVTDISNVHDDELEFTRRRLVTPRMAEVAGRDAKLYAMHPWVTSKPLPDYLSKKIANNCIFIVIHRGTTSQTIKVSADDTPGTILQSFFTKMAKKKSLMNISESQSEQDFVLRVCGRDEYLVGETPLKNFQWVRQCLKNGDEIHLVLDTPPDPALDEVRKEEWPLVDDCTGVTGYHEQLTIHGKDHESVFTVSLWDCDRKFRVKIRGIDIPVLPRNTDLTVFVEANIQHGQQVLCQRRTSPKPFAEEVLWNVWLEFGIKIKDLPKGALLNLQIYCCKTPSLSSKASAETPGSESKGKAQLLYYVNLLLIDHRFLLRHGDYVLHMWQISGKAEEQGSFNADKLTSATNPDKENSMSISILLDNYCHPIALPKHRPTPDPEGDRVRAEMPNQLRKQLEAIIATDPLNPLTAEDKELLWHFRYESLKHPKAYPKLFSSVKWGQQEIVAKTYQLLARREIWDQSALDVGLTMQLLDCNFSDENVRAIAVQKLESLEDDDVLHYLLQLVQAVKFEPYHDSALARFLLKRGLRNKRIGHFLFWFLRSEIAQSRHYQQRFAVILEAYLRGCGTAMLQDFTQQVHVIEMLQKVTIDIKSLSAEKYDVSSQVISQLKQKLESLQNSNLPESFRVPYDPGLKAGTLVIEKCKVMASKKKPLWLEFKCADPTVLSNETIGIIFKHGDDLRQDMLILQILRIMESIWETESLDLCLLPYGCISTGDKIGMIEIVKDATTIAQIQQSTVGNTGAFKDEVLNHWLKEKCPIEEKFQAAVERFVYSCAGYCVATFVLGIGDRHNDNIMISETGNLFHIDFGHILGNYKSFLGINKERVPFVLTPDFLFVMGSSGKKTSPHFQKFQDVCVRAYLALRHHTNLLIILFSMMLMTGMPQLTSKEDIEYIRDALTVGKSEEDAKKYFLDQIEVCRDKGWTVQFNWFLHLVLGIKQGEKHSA
T2 sequence (P48736 whole entry): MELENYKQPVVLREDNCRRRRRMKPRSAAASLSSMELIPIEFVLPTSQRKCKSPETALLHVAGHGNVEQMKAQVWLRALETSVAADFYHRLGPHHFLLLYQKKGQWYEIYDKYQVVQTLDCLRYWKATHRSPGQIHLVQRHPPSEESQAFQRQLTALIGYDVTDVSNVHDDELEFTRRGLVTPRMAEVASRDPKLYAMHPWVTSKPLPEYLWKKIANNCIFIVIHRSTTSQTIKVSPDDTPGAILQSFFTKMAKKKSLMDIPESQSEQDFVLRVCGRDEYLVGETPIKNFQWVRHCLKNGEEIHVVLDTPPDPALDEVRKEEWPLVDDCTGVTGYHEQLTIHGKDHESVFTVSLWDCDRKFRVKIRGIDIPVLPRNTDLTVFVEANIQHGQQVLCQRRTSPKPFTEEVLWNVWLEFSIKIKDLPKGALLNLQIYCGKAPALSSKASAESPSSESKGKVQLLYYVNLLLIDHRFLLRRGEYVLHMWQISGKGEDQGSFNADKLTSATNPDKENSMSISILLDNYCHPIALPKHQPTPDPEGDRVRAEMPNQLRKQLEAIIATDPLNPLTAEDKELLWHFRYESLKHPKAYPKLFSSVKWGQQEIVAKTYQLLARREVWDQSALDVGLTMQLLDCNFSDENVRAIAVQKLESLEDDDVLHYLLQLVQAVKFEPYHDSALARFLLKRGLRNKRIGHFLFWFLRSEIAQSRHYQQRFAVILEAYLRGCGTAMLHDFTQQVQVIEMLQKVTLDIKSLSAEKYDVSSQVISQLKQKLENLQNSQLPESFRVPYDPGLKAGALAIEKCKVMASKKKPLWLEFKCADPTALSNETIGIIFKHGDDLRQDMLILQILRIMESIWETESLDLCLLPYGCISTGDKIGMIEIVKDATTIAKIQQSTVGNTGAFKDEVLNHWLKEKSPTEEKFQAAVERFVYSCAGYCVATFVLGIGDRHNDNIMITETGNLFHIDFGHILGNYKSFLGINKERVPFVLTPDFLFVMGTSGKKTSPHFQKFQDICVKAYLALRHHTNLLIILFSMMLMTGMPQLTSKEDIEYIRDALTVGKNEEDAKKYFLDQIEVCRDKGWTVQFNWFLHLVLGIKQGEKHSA
T3 sequence (P42338 whole entry): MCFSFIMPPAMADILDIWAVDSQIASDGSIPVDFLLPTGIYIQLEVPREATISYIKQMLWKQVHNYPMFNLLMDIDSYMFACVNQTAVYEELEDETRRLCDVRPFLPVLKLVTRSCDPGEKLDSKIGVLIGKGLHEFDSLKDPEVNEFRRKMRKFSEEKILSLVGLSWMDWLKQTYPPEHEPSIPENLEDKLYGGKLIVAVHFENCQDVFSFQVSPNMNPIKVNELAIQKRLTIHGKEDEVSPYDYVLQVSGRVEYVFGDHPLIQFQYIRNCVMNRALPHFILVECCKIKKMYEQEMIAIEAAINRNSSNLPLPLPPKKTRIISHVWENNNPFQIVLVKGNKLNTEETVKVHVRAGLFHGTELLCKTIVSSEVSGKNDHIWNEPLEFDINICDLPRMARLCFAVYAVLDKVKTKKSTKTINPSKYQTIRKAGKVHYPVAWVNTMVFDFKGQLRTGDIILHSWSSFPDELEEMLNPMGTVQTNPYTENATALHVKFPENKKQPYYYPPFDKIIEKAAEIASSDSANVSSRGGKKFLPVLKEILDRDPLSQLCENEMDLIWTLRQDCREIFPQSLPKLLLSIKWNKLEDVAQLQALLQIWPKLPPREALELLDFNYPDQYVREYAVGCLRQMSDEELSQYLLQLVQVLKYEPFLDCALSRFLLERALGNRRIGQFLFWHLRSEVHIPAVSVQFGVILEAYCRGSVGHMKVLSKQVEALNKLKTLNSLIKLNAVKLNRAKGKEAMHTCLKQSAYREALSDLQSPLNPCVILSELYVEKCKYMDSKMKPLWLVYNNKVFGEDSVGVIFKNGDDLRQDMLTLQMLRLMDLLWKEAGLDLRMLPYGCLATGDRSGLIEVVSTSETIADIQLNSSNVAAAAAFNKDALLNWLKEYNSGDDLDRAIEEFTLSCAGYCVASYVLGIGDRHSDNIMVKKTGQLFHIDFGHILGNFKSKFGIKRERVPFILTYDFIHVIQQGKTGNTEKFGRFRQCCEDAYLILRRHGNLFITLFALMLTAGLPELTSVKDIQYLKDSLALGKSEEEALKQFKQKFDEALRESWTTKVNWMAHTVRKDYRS
T3 sequence (P27986 whole entry partner): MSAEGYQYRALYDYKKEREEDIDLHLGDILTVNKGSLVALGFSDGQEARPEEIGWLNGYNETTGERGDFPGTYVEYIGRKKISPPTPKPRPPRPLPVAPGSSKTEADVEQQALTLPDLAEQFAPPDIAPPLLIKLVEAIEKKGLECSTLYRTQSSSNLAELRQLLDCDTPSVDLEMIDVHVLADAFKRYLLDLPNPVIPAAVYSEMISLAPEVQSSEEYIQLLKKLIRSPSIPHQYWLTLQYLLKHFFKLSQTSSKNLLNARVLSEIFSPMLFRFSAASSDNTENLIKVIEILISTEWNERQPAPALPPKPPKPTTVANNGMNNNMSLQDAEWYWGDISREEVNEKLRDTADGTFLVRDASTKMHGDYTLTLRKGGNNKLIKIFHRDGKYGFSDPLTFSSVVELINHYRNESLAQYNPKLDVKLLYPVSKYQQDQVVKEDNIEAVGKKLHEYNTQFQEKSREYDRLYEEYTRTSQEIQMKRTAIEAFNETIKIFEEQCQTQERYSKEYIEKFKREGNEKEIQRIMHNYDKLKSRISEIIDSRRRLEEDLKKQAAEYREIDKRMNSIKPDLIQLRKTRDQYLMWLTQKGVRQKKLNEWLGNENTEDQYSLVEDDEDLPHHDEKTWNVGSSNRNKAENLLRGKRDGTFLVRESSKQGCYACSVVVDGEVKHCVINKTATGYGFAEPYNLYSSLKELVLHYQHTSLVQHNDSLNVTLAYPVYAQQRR
T1 sequence (P42336 whole entry): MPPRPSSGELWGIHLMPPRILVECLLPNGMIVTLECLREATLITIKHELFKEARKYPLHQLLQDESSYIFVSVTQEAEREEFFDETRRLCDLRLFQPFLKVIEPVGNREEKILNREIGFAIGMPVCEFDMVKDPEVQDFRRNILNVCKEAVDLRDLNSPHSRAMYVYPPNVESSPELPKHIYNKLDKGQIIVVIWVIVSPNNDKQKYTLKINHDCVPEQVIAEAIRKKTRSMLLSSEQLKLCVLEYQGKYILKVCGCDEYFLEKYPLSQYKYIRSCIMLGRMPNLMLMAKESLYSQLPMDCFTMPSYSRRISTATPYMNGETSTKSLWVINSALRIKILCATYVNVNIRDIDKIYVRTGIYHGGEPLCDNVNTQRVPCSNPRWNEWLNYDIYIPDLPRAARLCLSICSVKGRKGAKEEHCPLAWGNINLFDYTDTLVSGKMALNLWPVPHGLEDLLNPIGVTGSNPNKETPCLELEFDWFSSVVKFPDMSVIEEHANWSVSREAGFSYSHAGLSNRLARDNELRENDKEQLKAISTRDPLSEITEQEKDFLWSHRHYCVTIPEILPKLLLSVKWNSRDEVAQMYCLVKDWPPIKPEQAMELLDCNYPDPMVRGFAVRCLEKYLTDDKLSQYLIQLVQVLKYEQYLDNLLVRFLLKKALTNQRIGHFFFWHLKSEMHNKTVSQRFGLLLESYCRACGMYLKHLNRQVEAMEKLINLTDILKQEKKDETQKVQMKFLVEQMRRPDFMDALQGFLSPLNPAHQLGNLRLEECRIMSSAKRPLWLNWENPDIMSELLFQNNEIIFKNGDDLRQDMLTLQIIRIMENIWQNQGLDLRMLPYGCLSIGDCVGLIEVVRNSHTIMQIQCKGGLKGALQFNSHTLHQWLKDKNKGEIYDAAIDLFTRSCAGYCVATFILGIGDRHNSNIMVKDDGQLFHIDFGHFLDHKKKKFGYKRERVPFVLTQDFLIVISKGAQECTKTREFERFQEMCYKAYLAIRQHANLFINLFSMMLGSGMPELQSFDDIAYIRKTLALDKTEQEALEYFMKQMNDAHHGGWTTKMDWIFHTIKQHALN
T1 sequence (P27986 whole entry partner): as the sequence (P27986 whole entry partner) above

| Compound | inhibition at 1 µM (PI3Kα (p110α/p85α)) | inhibition at 10 µM (PI3Kα (p110α/p85α)) | IC50 (PI3Kα (p110α/p85α)) | inhibition at 1 µM (PI3Kγ (p110 gamma); read-out: PI3Kγ % inhib) | inhibition at 10 µM (PI3Kγ (p110 gamma); read-out: PI3Kγ % inhib) | IC50 (PI3Kγ (p110 gamma)) | inhibition at 10 µM (PI3Kβ (p110β/p85α); read-out: PI3Kβ % inhib) | IC50 (PI3Kβ (p110β/p85α)) | EC50 (PI3Kγ) | inhibition at 1 µM (PI3Kβ (p110β/p85α); 1 μM, read-out: PI3Kβ % inhib) | inhibition at 0.1 µM (PI3Kγ (p110 gamma); 0.1 μM, read-out: PI3Kγ % inhib) |
| --- | --- | --- | --- | --- | --- | --- | --- | --- | --- | --- | --- |
| CC(Nc1ncnc2[nH]cnc12)c1nc2ccccc2nc1-c1ccccc1 (stereo not shown) [Compound Q1] | 18% | 89% | 6920 nM | 78% | 99% | 147 nM | 72% | > 10000 nM | 4620 nM | – | – |
| Cc1cccc2nc(C(C)Nc3nc(N)nc4[nH]cnc34)c(-c3ccc(F)cc3)nc12 (stereo not shown) [Compound Q5] | 41% | 97% | 404 nM | 79% | 98% | 2 nM | 85% | 459 nM | 628 nM | 23% | – |
| CC(Nc1ncnc2[nH]cnc12)c1nc2ccccc2nc1-c1cc(F)cc(F)c1 (stereo not shown) [Compound Q2, N-{1-[3-(3,5-difluorophenyl)quinoxalin-2-yl]ethyl}-9H-purin-6-amine] | – | 47% | > 10000 nM | 42% | 86% | 5790 nM | 8% | > 10000 nM | > 20000 nM | – | – |
| CCC(Nc1ncnc2[nH]cnc12)c1nc2cccc(F)c2nc1-c1ccccc1 (stereo not shown) [Compound Q9] | – | 72% | > 10000 nM | 37% | 95% | 2150 nM | 60% | > 10000 nM | > 20000 nM | – | – |
| Cc1cccc2nc(C(C)Nc3nc(N)nc4[nH]cnc34)c(-c3ccccc3)nc12 (stereo not shown) [Compound Q4] | 18% | 92% | 2590 nM | 84% | 99% | 8 nM | 77% | 1130 nM | 344 nM | – | 36% |
| Cc1cccc(-c2nc3ccccc3nc2C(C)Nc2ncnc3[nH]cnc23)c1 (stereo not shown) [Compound Q3] | – | 65% | > 10000 nM | 51% | 94% | 2070 nM | 25% | > 10000 nM | > 20000 nM | – | – |
| CCC(Nc1ncnc2[nH]cnc12)c1nc2ccccc2nc1-c1ccccc1 (stereo not shown) [Compound Q12] | – | 77% | > 10000 nM | 44% | 96% | 762 nM | 75% | > 10000 nM | > 20000 nM | – | – |
